Experiment: recombinant UMI read abundance after kanamycin selection (control-corrected) (log10(CPM+1)); higher = more efficient recombination; extreme values may be limits of the assay; sequences stand for … in AGTGCAGAGAAAATCGGCCAGTTTTCTCTGCCTGCAGTCCGCATGCCGTGGGACCCCTTGGGTTCTAACCTGTTGCCTAGATTTATGCAGCGGACTGCCTTTCTCCCAAAGTGATAAACCGG…AGGTTGGTTTCACT; site = the 11-nt donor
In short: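 Values are reported as log10(CPM+1), obtained by converting sequencing counts to CPM, averaging replicates and scaling by control-derived factors. The counts came from recombinant UMIs amplified by PCR across the donor–target junction. These UMIs came from a pooled Escherichia coli screen of donor and donor-binding-loop pairs for the IS621 bridge recombinase, plated with IPTG (0.07 mM) plus kanamycin or left unselected, in two replicates each.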
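Further: IS621 bridge recombinase in Escherichia coli cells against a fixed T5 target plasmid.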

Sequence	recombinant UMI read abundance (log10)
CCCGTATCATGGACCGGTTTTCCCGGTAATCCGTATTTGTC (site CCCCTATCTGA)	0.0235
CCCGTATCATGGACCGGTTTTCCCGGTAATCCGTATTTGTC (site CCCGTATCTGA)	1.83
CCCGTATCATGGACCGGTTTTCCCGGTAATCCGTATTTGTC (site CCCTTATCTGA)	0
CCCGTCCCATGGACCGGTTTTCCCGGTAATCCGTATTTGGA (site CCCGTCCCTTC)	0.00421
CCCGTGACATGGACCGGTTTTCCCGGTAATCCGTATTTGAT (site CCCGTGACTAT)	1.05
CCCGTTCCATGGACCGGTTTTCCCGGTAATCCGTATTTGGC (site CCCGTTCCTGC)	0
CCCGTTTCATGGACCGGTTTTCCCGGTAATCCGTATTTGAG (site CCCGTTTCTCT)	0.807
CCCTACCCATGGACCGGTTTTCCCGGTAATCCGTATTTGCC (site CCCTAACCTGG)	0
CCCTACCCATGGACCGGTTTTCCCGGTAATCCGTATTTGCC (site CCCTACCCTGG)	0.541
CCCTACCCATGGACCGGTTTTCCCGGTAATCCGTATTTGCC (site CCCTAGCCTGG)	0
CCCTACCCATGGACCGGTTTTCCCGGTAATCCGTATTTGCC (site CCCTATCCTGG)	0
CCCTAGACATGGACCGGTTTTCCCGGTAATCCGTATTTGGG (site ACCTAGACTCC)	0.036
CCCTAGACATGGACCGGTTTTCCCGGTAATCCGTATTTGGG (site CCCTAGACTCC)	0.546
CCCTAGACATGGACCGGTTTTCCCGGTAATCCGTATTTGGG (site GCCTAGACTCC)	0.0233
CCCTAGACATGGACCGGTTTTCCCGGTAATCCGTATTTGGG (site TCCTAGACTCC)	0.0148
CCCTAGCCATGGACCGGTTTTCCCGGTAATCCGTATTTGCC (site ACCTAGCCTGG)	0
CCCTAGCCATGGACCGGTTTTCCCGGTAATCCGTATTTGCC (site CACTAGCCTGG)	0
CCCTAGCCATGGACCGGTTTTCCCGGTAATCCGTATTTGCC (site CCATAGCCTGG)	0
CCCTAGCCATGGACCGGTTTTCCCGGTAATCCGTATTTGCC (site CCCAAGCCTGG)	0
CCCTAGCCATGGACCGGTTTTCCCGGTAATCCGTATTTGCC (site CCCCAGCCTGG)	0
CCCTAGCCATGGACCGGTTTTCCCGGTAATCCGTATTTGCC (site CCCGAGCCTGG)	0
CCCTAGCCATGGACCGGTTTTCCCGGTAATCCGTATTTGCC (site CCCTAACCTGG)	0
CCCTAGCCATGGACCGGTTTTCCCGGTAATCCGTATTTGCC (site CCCTACCCTGG)	0
CCCTAGCCATGGACCGGTTTTCCCGGTAATCCGTATTTGCC (site CCCTAGACTGG)	0
CCCTAGCCATGGACCGGTTTTCCCGGTAATCCGTATTTGCC (site CCCTAGCCTAG)	0.00741

Sequence	recombinant UMI read abundance (log10)
CCCTAGCCATGGACCGGTTTTCCCGGTAATCCGTATTTGCC (site CCCTAGCCTCG)	0.00555
CCCTAGCCATGGACCGGTTTTCCCGGTAATCCGTATTTGCC (site CCCTAGCCTGA)	0
CCCTAGCCATGGACCGGTTTTCCCGGTAATCCGTATTTGCC (site CCCTAGCCTGC)	0
CCCTAGCCATGGACCGGTTTTCCCGGTAATCCGTATTTGCC (site CCCTAGCCTGG)	0
CCCTAGCCATGGACCGGTTTTCCCGGTAATCCGTATTTGCC (site CCCTAGCCTGT)	0
CCCTAGCCATGGACCGGTTTTCCCGGTAATCCGTATTTGCC (site CCCTAGCCTTG)	0.00543
CCCTAGCCATGGACCGGTTTTCCCGGTAATCCGTATTTGCC (site CCCTAGGCTGG)	0
CCCTAGCCATGGACCGGTTTTCCCGGTAATCCGTATTTGCC (site CCCTAGTCTGG)	1.15
CCCTAGCCATGGACCGGTTTTCCCGGTAATCCGTATTTGCC (site CCCTATCCTGG)	0
CCCTAGCCATGGACCGGTTTTCCCGGTAATCCGTATTTGCC (site CCCTCGCCTGG)	0
CCCTAGCCATGGACCGGTTTTCCCGGTAATCCGTATTTGCC (site CCCTGGCCTGG)	0
CCCTAGCCATGGACCGGTTTTCCCGGTAATCCGTATTTGCC (site CCCTTGCCTGG)	0
CCCTAGCCATGGACCGGTTTTCCCGGTAATCCGTATTTGCC (site CCGTAGCCTGG)	0
CCCTAGCCATGGACCGGTTTTCCCGGTAATCCGTATTTGCC (site CCTTAGCCTGG)	0
CCCTAGCCATGGACCGGTTTTCCCGGTAATCCGTATTTGCC (site CGCTAGCCTGG)	0
CCCTAGCCATGGACCGGTTTTCCCGGTAATCCGTATTTGCC (site CTCTAGCCTGG)	0
CCCTAGCCATGGACCGGTTTTCCCGGTAATCCGTATTTGCC (site GCCTAGCCTGG)	0
CCCTAGCCATGGACCGGTTTTCCCGGTAATCCGTATTTGCC (site TCCTAGCCTGG)	0
CCCTAGGCATGGACCGGTTTTCCCGGTAATCCGTATTTGCC (site CCCTAGACTGG)	0
CCCTAGGCATGGACCGGTTTTCCCGGTAATCCGTATTTGCC (site CCCTAGCCTGG)	0
CCCTAGGCATGGACCGGTTTTCCCGGTAATCCGTATTTGCC (site CCCTAGGCTGG)	0
CCCTAGGCATGGACCGGTTTTCCCGGTAATCCGTATTTGCC (site CCCTAGTCTGG)	0
CCCTAGTCATGGACCGGTTTTCCCGGTAATCCGTATTTGCC (site CCCTAGACTGG)	0.402
CCCTAGTCATGGACCGGTTTTCCCGGTAATCCGTATTTGCC (site CCCTAGCCTGG)	0
CCCTAGTCATGGACCGGTTTTCCCGGTAATCCGTATTTGCC (site CCCTAGGCTGG)	0

Sequence	recombinant UMI read abundance (log10)
CCCTAGTCATGGACCGGTTTTCCCGGTAATCCGTATTTGCC (site CCCTAGTCTGG)	1.23
CCCTCAACATGGACCGGTTTTCCCGGTAATCCGTATTTGCA (site CCCTCAACTTG)	0.377
CCCTCTACATGGACCGGTTTTCCCGGTAATCCGTATTTGCT (site CCCTCTACTAG)	1.58
CCCTGTCCATGGACCGGTTTTCCCGGTAATCCGTATTTGCA (site CCCAGTCCTTG)	0
CCCTGTCCATGGACCGGTTTTCCCGGTAATCCGTATTTGCA (site CCCCGTCCTTG)	0.0428
CCCTGTCCATGGACCGGTTTTCCCGGTAATCCGTATTTGCA (site CCCGGTCCTTG)	0
CCCTGTCCATGGACCGGTTTTCCCGGTAATCCGTATTTGCA (site CCCTGTCCTTG)	0.00678
CCCTTAGCATGGACCGGTTTTCCCGGTAATCCGTATTTGTG (site CCATTAGCTCA)	0.0224
CCCTTAGCATGGACCGGTTTTCCCGGTAATCCGTATTTGTG (site CCCTTAGCTCA)	0.0472
CCCTTAGCATGGACCGGTTTTCCCGGTAATCCGTATTTGTG (site CCGTTAGCTCA)	0.00331
CCCTTAGCATGGACCGGTTTTCCCGGTAATCCGTATTTGTG (site CCTTTAGCTCA)	0.0232
CCCTTCTCATGGACCGGTTTTCCCGGTAATCCGTATTTGGG (site ACCTTCTCTCC)	0.00611
CCCTTCTCATGGACCGGTTTTCCCGGTAATCCGTATTTGGG (site CACTTCTCTCC)	0.00776
CCCTTCTCATGGACCGGTTTTCCCGGTAATCCGTATTTGGG (site CCATTCTCTCC)	0
CCCTTCTCATGGACCGGTTTTCCCGGTAATCCGTATTTGGG (site CCCATCTCTCC)	0.0128
CCCTTCTCATGGACCGGTTTTCCCGGTAATCCGTATTTGGG (site CCCCTCTCTCC)	0.0125
CCCTTCTCATGGACCGGTTTTCCCGGTAATCCGTATTTGGG (site CCCGTCTCTCC)	0.00385
CCCTTCTCATGGACCGGTTTTCCCGGTAATCCGTATTTGGG (site CCCTACTCTCC)	0.0199
CCCTTCTCATGGACCGGTTTTCCCGGTAATCCGTATTTGGG (site CCCTCCTCTCC)	0.0129
CCCTTCTCATGGACCGGTTTTCCCGGTAATCCGTATTTGGG (site CCCTGCTCTCC)	0.0154
CCCTTCTCATGGACCGGTTTTCCCGGTAATCCGTATTTGGG (site CCCTTATCTCC)	0
CCCTTCTCATGGACCGGTTTTCCCGGTAATCCGTATTTGGG (site CCCTTCACTCC)	0.0149
CCCTTCTCATGGACCGGTTTTCCCGGTAATCCGTATTTGGG (site CCCTTCCCTCC)	0.00574
CCCTTCTCATGGACCGGTTTTCCCGGTAATCCGTATTTGGG (site CCCTTCGCTCC)	0.0128
CCCTTCTCATGGACCGGTTTTCCCGGTAATCCGTATTTGGG (site CCCTTCTCTAC)	0

— the supplement of paper PMC11208160
